Assay results from US12178808B2, “Amorphous solid dispersion comprising 6-(1-acryloylpiperidin-4-yl)-2-(4-phenoxyphenyl)nicotinamide” (BEIJING INNOCARE PHARMA TECH CO., LTD., priority 2018, dated 2024).
Values after ≈ are worked out from the molar mass of the structure shown.

Columns and labels:
[1] = type: physicochemical; conditions: 24 h
[2] = Bioavailability of Type F crystalline form; conditions: in vivo
Source text: Type F is a stable crystalline form and is useful as an active pharmaceutical ingredient (API) for a pharmaceutical formulation. However, its dissolution is slow and bioavailability is low (20%).

[3] = Dissolution in fasted-state simulated intestinal fluid (FaSSIF); type: physicochemical
Method: 10 mg of accurately weighted samples of Type A and Type F, and 50 mg of HPMCAS-20-SDD (ASD with 20% drug loading made via spray-drying dispersion, see Example 3) were each added to 20 mL of fasted-state simulated intestinal fluid (FaSSIF) solution (pH 6.5) in a 50-mL centrifuge tube. The tube was placed in a shaker and kept shaking with 100 rpm at 37° C. At different time intervals (10, 30, 60, 120, 240 min), 350 μL suspension was removed and centrifuged at 13,000 rpm for 3 minutes to give a clear solution that was then analyzed by HPLC.
Samples of HPMCAS-20-SDD, HPMCAS-40-SDD, HPMCAS-60-SDD, PVPVA-20-HME were tested for dissolution according to the protocols of Example 5.

[4] = Glass transition temperature by DSC; type: physicochemical; conditions: DSC 0 to 180° C. at 10° C./min
Method: Accurately weighted samples (containing 5 mg of Compound I. see Table 3) were prepared according to the protocols of Examples 3 and 4, except varying the polymer and the drug amount. The examples were each placed in a DSC pan (TA Instruments), which was then sealed and placed in a TA Instruments Q2000. The pan was heated at 105° C. for 3 minutes and then rapidly cooled to 0° C. for 1 minute. The DSC analysis was carried out between 0 to 180° C. at a rate of 10° C./min.

solubility [1] [µg/mL]	bioavailability [2] [%]	dissolution ([3]; general statement on the crystalline form)	dissolution in FaSSIF (comparison) ([3]; FaSSIF pH 6.5, 37° C., 100 rpm, 10-240 min)	Tg [4] [°C]	Compound
4 (≈ 9.36 µM)	20	slow	–	–	C=CC(=O)N1CCC(c2ccc(C(N)=O)c(-c3ccc(Oc4ccccc4)cc3)n2)CC1 [Type F, 6-(1-acryloylpiperidin-4-yl)-2-(4-phenoxyphenyl)nicotinamide]
13 (≈ 30.4 µM)	–	–	better than Type F's	69.4	C=CC(=O)N1CCC(c2ccc(C(N)=O)c(-c3ccc(Oc4ccccc4)cc3)n2)CC1 [Type A, 6-(1-acryloylpiperidin-4-yl)-2-(4-phenoxyphenyl)nicotinamide]
